Results published in patent US8987217B2, “Modified saponins for the treatment of fungal infections” (The General Hospital Corporation, priority 2010, dated 2015).
Values after ≈ are worked out from the molar mass of the structure shown. “Also recorded” adds a separate entry of the source. Where two headings read alike, the source gives them in different places.

How the values were obtained:
[1] = tested on: C. albicans; test: C. elegans-C. albicans co-inoculation assay, nematode survival; assay type: in vivo; settings: for maximum nematode survival / promoting C. elegans survival compared with amphotericin B: dose response; for maximum nematode survival: C. albicans-infected C. elegans; for EC50 in vivo: dose that resulted in 50% survival of C. albicans-infected nematodes; for promoting C. elegans survival compared with amphotericin B: FIG. 2A
Experimental: (§1) The procedure for the co-inoculation antifungal compound screen were conducted as previously described (Okoli et al., PLoS ONE, 4:e7025 (2009); Tampakakis et al., Nat Protocols, 3:1925-1931 (2008)), using the C. albicans strain DAY185 (Davis et al., Infect Immun, 68:5953-5959 (2000)) and the C. elegans glp-4;sek-1 double mutant.
(§2) This assay allows simultaneous assessment of a compound's potential toxicity and the ability to promote the survival of the nematode in the presence of C. albicans, including modes of action not traditionally considered in antifungal assays such as impeding a fungal virulence factor or promoting host immune response. We performed a screen of 2,560 natural products representing a fraction of the Analyiticon Discovery compound collection (ac-discovery.com) housed at the Broad Institute of Harvard and MIT (Cambridge, Mass.). […] These natural products identified in the primary screen were retested and confirmed (FIG. 1; Table 1). […] Moreover, although the antifungal effects of some of these saponins have been reported (Sata et al., Biosci Biotechnol Biochem, 62:1904-1911 (1998); Ohtani et al., Phytochem, 33:83-86 (1993)), their efficacy against Candida spp. has not been studied.
After confirmation of these hits, dose response experiments were conducted to determine the concentration that provided maximum nematode survival. The compounds conferred a range of nematode survival from 27% (compound A6) to 93% (compounds A2, A7, A24, and A25), however, with the exception of A6, all compounds conferred a nematode survival over 65% (FIG. 1).

[2] = tested on: C. albicans strain DAY185; test: in vitro antifungal activity (MIC) in the co-inoculation assay, turbidity read visually; assay type: cell-based; settings: for MIC in vitro: co-inoculation assay, two-fold serial dilutions, C. albicans DAY185; for in vitro growth of C. albicans: screen / dose response
Experimental: as §1
The determination of the lowest concentration of the selected compounds showing in vitro antifungal activity was accomplished by following the steps detailed in the co-inoculation assay, using two-fold serial dilutions of the test compounds.

[3] = tested on: C. elegans; test: toxicity to the nematode in dose response experiments; settings: for toxicity to the nematode: dose response experiments, higher concentrations
Description: as §2
Representatives of the saponins family are able to disrupt cellular membranes and the lytic activity on erythrocytes has been used as an assay for some saponins Francis et al., British Journal of Nutrition, 88:587-605 (2002)). This property is derived from the affinity of some saponins for binding cholesterol forming insoluble pores composed of the sterol and saponins (Bangham et al., Nature, 196:952-953(1962); Glauert et al., Nature, 196:953-955 (1962)). […] The dose-response experiments previously used to determine the EC50 and approximate the MIC can also indicate if the saponins maybe toxic to C. elegans and potentially to mammalian cells.

[4] = tested on: C. albicans strains; test: MIC by standard CLSI microdilution protocol M27-A; assay type: cell-based
Experimental: Using the standard Clinical and Laboratory Standards Institute (CLSI) procedure, the in vitro MIC of these two compounds was determined on the following C. albicans strains: DAY185 (the standard strain used throughout the screen), two fluconazole-resistant strains of C. albicans, and an echinocandin-resistant strain of C. albicans (Table 2).
The minimal inhibitory concentration (MIC) was determined for strains DAY185, 98-145, 95-120 (White et al., Antimicrob Agents Chemother, 46:1704-1713 (2002)), and A15-10 (Garcia-Effron et al., Antimicrob Agents Chemother, 53:112-122 (2009)) spectrophotometrically using RPMI 1640 media (Mediatech, Inc.) following the standard CLSI microdilution protocol M27-A (National Committee for Clinical Laboratory Standards, Reference method for broth dilution susceptibility testing of yeasts. Tentative standard M27-A, Villanova, Pa. (1995)). Biofilm assays using identified compounds were conducted as previously described (Richard et al., Eukaryot Cell, 4:1493-1502 (2005)). The biofilm dry mass was determined by drying the silicone squares in a chemical hood, and weighing the resulting biofilm mass subtracting the previously weighed mass of the silicone square. Biofilm pictures were captured using a confocal laser microscope (TCS NT, Leica Microsystems). Cells were grown at 30° C., exposed to PS for 30 min, and then washed with PBS.

[5] = tested on: C. albicans isolates; test: interaction between A16 and fluconazole (MIC); assay type: cell-based
Description: Since compound A16 was able to facilitate uptake of PS compounds, we investigated their ability to increase uptake to the commonly used antifungal agent fluconazole. As indicated above, fluconazole and saponins have different target sites, although they both function by altering the fungal cell membrane. […] One of the molecular mechanisms responsible for increased resistance to fluconazole for isolate 98-145 is a homozygous V437I point mutation in the ERG11 gene (White et al., Antimicrob Agents Chemother, 46:1704-1713 (2002)).

[6] = tested on: C. albicans DAY185; settings: at the concentrations used, yeast cells; cited from earlier work

C[C@@H]1O[C@@H](O[C@H]2[C@H](O[C@H]3[C@H](O[C@H]4[C@H](O)[C@@H](O[C@@H]5O[C@H](CO)[C@@H](O)[C@H](O)[C@H]5O)[C@H](O[C@H]5CC[C@@]6(C)C(CC[C@]7(C)C6CC[C@]68OCC9(CCC(C)(C)CC96)[C@H](O)C[C@]87C)C5(C)C)O[C@@H]4C(=O)O)O[C@H](CO)[C@H](O)[C@@H]3O)O[C@@H](C)[C@H](O)[C@H]2O)[C@H](O)[C@H](O)[C@H]1O (some centres unmarked) [A2, Sakurasosaponin]
maximum nematode survival [1]: 93% | EC50 in vivo [1]: 55.1 µg/mL (≈ 44 µM) | MIC in vitro [2]: 27.5 µg/mL (≈ 22 µM) | in vitro growth of C. albicans [2]: completely inhibited

CC1(C)CC[C@]2(C(=O)O)CC[C@]3(C)C(=CCC4[C@@]5(C)CC[C@H](OC6O[C@H](CO)[C@@H](O)[C@H](O[C@@H]7O[C@H](CO)[C@@H](O)[C@H](O)[C@H]7O)[C@H]6O)C(C)(C)C5CC[C@]43C)[C@@H]2C1 (some centres unmarked) [A6, Arvensoside B]
maximum nematode survival [1]: 27%

C/C=C(/C)C(=O)O[C@H]1[C@H](OC(=O)/C(C)=C\C)[C@]2(CO)[C@H](O)C[C@]3(C)C(=CCC4[C@@]5(C)CC[C@H](OC6OC(C(=O)O)C(O)C(OC7OC(C)C(O)C(OC8OC(CO)C(O)C(O)C8O)C7O)C6O)C(C)(C)C5CC[C@]43C)[C@@H]2CC1(C)C (some centres unmarked) [A7]
maximum nematode survival [1]: 93% | promoting C. elegans survival compared with amphotericin B [1]: as effective as amphotericin B | EC50 in vivo [1]: 3.1 µg/mL (≈ 2.72 µM) | MIC in vitro [2]: 3.1 µg/mL (≈ 2.72 µM) | in vitro growth of C. albicans [2]: completely inhibited | toxicity to the nematode [3]: decrease in nematode survival; also recorded: maybe toxic to the nematode

CC1CC[C@@]2(OC1)O[C@H]1CC3C4C[C@@H](O)C5C[C@@H](O[C@@H]6O[C@H](CO)[C@H](O[C@@H]7O[C@H](CO)[C@@H](O)[C@H](O[C@@H]8OC[C@@H](O)[C@H](O)[C@H]8O)[C@H]7O[C@@H]7O[C@H](CO)[C@@H](O)[C@H](O)[C@H]7O)[C@H](O)[C@H]6O)CC[C@]5(C)C4CC[C@]3(C)[C@H]1[C@@H]2C (some centres unmarked) [A8]
EC50 in vivo [1]: 23.1 µg/mL (≈ 22 µM) | MIC in vitro [2]: 5.8 µg/mL (≈ 5.52 µM)

CC1CC[C@@]2(OC1)O[C@H]1CC3C4CC=C5C[C@@H](O[C@@H]6O[C@H](CO)[C@@H](O[C@@H]7O[C@@H](C)[C@H](O)[C@@H](O)[C@H]7O)[C@H](O)[C@H]6O[C@@H]6O[C@@H](C)[C@H](O)[C@@H](O)[C@H]6O)CC[C@]5(C)C4CC[C@]3(C)[C@H]1[C@@H]2C (some centres unmarked) [A11]
EC50 in vivo [1]: 38.9 µg/mL (≈ 44.8 µM) | MIC in vitro [2]: 38.9 µg/mL (≈ 44.8 µM)

CC1CC[C@@]2(OC1)O[C@H]1CC3C4CC=C5C[C@@H](O[C@@H]6O[C@H](CO)[C@@H](O[C@@H]7O[C@@H](C)[C@H](O)[C@@H](O)[C@H]7O[C@@H]7O[C@@H](C)[C@H](O)[C@@H](O)[C@H]7O)[C@H](O)[C@H]6O)CC[C@]5(C)C4CC[C@]3(C)[C@H]1[C@@H]2C (some centres unmarked) [A20]
promoting C. elegans survival compared with amphotericin B [1]: as effective as amphotericin B | EC50 in vivo [1]: 4.8 µg/mL (≈ 5.52 µM) | MIC in vitro [2]: 4.8 µg/mL (≈ 5.52 µM)

CC1CC[C@@]2(OC1)O[C@H]1CC3C4C[C@@H](O)C5C[C@@H](O[C@@H]6O[C@H](CO)[C@H](O[C@@H]7O[C@H](CO)[C@@H](O)[C@H](O[C@@H]8OC[C@@H](O[C@@H]9O[C@H](CO)[C@@H](O)[C@H](O)[C@H]9O)[C@H](O)[C@H]8O)[C@H]7O[C@@H]7O[C@H](CO)[C@@H](O)[C@H](O)[C@H]7O)[C@H](O)[C@H]6O)CC[C@]5(C)C4CC[C@]3(C)[C@H]1[C@@H]2C (some centres unmarked) [A24]
maximum nematode survival [1]: 93% | EC50 in vivo [1]: 13.3 µg/mL (≈ 11 µM) | MIC in vitro [2]: 13.3 µg/mL (≈ 11 µM) | toxicity to the nematode [3]: decrease in nematode survival | concentrations showing evidence of toxicity to the worms ([3]; in vivo): > 27000 ng/mL

C/C=C(/C)C(=O)O[C@H]1CC(C)(C)C[C@H]2C3=CCC4[C@@]5(C)CC[C@H](O[C@@H]6O[C@H](C(=O)O)[C@@H](O[C@@H]7O[C@H](CO)[C@H](O)[C@H](O)[C@H]7O[C@@H]7O[C@H](CO)[C@@H](O)[C@H](O)[C@H]7O)[C@H](O)[C@H]6OC6O[C@@H](C)[C@H](O)[C@@H](O)[C@H]6O)C(C)(C)C5CC[C@@]4(C)[C@]3(C)[C@@H](OC(C)=O)[C@@H](O)[C@@]12COC(C)=O (some centres unmarked) [A25]
maximum nematode survival [1]: 93% | EC50 in vivo [1]: 28.7 µg/mL (≈ 22 µM) | MIC in vitro [2]: 28.7 µg/mL (≈ 22 µM) | in vitro growth of C. albicans [2]: completely inhibited

C[C@@H]1[C@H](O)[C@@H](C)/C=C/C=C/C=C/C=C/C=C/C=C/C=C/[C@H](O[C@@H]2O[C@H](C)[C@@H](O)[C@H](N)[C@@H]2O)C[C@@H]2O[C@](O)(C[C@@H](O)C[C@@H](O)[C@H](O)CC[C@@H](O)C[C@@H](O)CC(=O)O[C@H]1C)C[C@H](O)[C@H]2C(=O)O [Amphotericin B]
MIC ([4]; C. albicans DAY185): 2 µg/mL (≈ 2.16 µM) | MIC ([4]; echinocandin-resistant strain A15): 2 µg/mL (≈ 2.16 µM) | MIC ([4]; fluconazole-resistant strain 95-120): 2 µg/mL (≈ 2.16 µM) | MIC ([4]; fluconazole-resistant strain 98-145): 2 µg/mL (≈ 2.16 µM) | maximum nematode survival [1]: 93% | EC50 in vivo [1]: 2.0 µg/mL (≈ 2.16 µM) | MIC in vitro [2]: 1.0 µg/mL (≈ 1.08 µM)

CC[C@H](C)C[C@H](C)CCCCCCCCC(=O)N[C@H]1C[C@@H](O)[C@@H](NCCN)NC(=O)[C@@H]2[C@@H](O)CCN2C(=O)[C@H]([C@H](O)CCN)NC(=O)[C@H]([C@H](O)[C@@H](O)c2ccc(O)cc2)NC(=O)[C@@H]2C[C@@H](O)CN2C(=O)[C@H]([C@@H](C)O)NC1=O [Caspofungin]
MIC ([4]; Candida albicans, C. albicans DAY185): 2 µg/mL (≈ 1.83 µM) | MIC ([4]; Candida albicans, echinocandin-resistant strain A15): 8 µg/mL (≈ 7.32 µM) | MIC ([4]; Candida albicans, fluconazole-resistant strain 95-120): 1 µg/mL (≈ 0.915 µM) | MIC ([4]; Candida albicans, fluconazole-resistant strain 98-145): 1 µg/mL (≈ 0.915 µM)

OC(Cn1cncn1)(Cn1cncn1)c1ccc(F)cc1F [Fluconazole]
MIC ([5]; Candida albicans, C. albicans isolate DAY185, read-out: MIC of fluconazole alone): 2 µg/mL | MIC of fluconazole in combination with A16 ([5]; DAY185, subinhibitory A16 (4 μg/mL)): 1 µg/mL | sensitivity to fluconazole treatment in the presence of A16 ([5]; two C. albicans isolates with increased resistance to fluconazole): no increase in sensitivity | MIC ([4]; Candida albicans, C. albicans DAY185, read-out: MIC): 2 µg/mL (≈ 6.53 µM) | MIC ([4]; Candida albicans, echinocandin-resistant strain A15, read-out: MIC): 2 µg/mL (≈ 6.53 µM) | MIC ([4]; Candida albicans, fluconazole-resistant strain 95-120, read-out: MIC): 32 µg/mL (≈ 104 µM) | MIC ([4]; Candida albicans, fluconazole-resistant strain 98-145, read-out: MIC): > 128 µg/mL

O=C1OC2(c3cc(I)c(O)c(I)c3Oc3c2cc(I)c(O)c3I)c2c(Cl)c(Cl)c(Cl)c(Cl)c21 [RB, Rose Bengal]
PDI effect of photosensitizer alone [6]: no statistically significant PDI effect

C=Cc1c(C)c2cc3nc(c(CC(=O)O)c4[nH]c(cc5nc(cc1[nH]2)C(C)=C5CC)c(C)c4C(=O)O)[C@@H](CCC(=O)O)[C@@H]3C [ce6, chlorin(e6)]
PDI effect of photosensitizer alone [6]: no statistically significant PDI effect
